This is an account of results in patent US10947251B2, “Therapeutic compounds and methods of use thereof” (GENENTECH, INC., priority 2018, dated 2021).

For assay [1], the target named is T1, hNav1.7 (Homo sapiens (Human), UniProt Q15858). The assay can be described thus: Tritiated compound binding to membranes from cells heterologously expressing hNav1.7 and the β1 subunit (LBA). Conditions: competitive binding vs [3H]compound, membranes with hNav1.7 and β1 subunit; read-out: Nav1.7 LBA EVO IC50. The method, then:
Example 39A. Tritiated Compound Binding to Membranes Isolated from Cells that Heterologously Express hNav1.7 and the β1 Subunit
Preparation of membranes containing recombinantly expressed sodium channels: Frozen recombinant cell pellets were thawed on ice and diluted to 4 times the cell pellet weight with ice cold 50 mM Tris HCl, pH 7.4 buffer. The cell suspensions were homogenized on ice using a motorized glass dounce homogeniser. Homogenates were further diluted 8.4 times with ice cold 50 mM Tris HCl, pH 7.4 buffer and then centrifuged at 200×g at 4° C. for 15 min. The supernatants were collected and centrifuged at 10000×g at 4° C. for 50 min. The pellets were then re-suspended in 100 mM NaCl, 20 mM Tris HCl, pH 7.4 buffer containing 1% v/v protease inhibitors (Calbiochem) and re-homogenized on ice. The homogenized membranes were then processed through a syringe equipped with a 26 gauge needle. Protein concentrations were determined by Bradford Assay and the membranes were stored at −80° C.
Saturation experiments. A competitive NaV1.7 inhibitor having a methyl group was tritiated. Three tritiums were incorporated in place of methyl hydrogens to generate [^3H]compound. Binding of this radioligand was performed in 5 mL borosilicate glass test tubes at room temperature. Binding was initiated by adding membranes to increasing concentrations of [^3H]compound in 100 mM NaCl, 20 mM Tris HCl, pH 7.4 buffer containing 0.01% w/v bovine serum albumin (BSA) for 18 h. Non-specific binding was determined in the presence of 1 μM unlabeled compound. After 18 h, the reactants were filtered through GF/C glass fiber filters presoaked in 0.5% w/v polyethylene imine. Filters were washed with 15 mL ice cold 100 mM NaCl, 20 mM Tris HCl, pH7.4 buffer containing 0.25% BSA to separate bound from free ligand. [^3H]compound bound to filters was quantified by liquid scintillation counting.
Binding reactions were performed in 96-well polypropylene plates at room temperature for 18 h. In 360 μL, membranes were incubated with 100 pM [^3H]compound and increasing concentrations of Test Compound. Non-specific binding was defined in the presence of 1 μM unlabeled compound. Reactions were transferred and filtered through 96-well glass fiber/C filter plates presoaked with 0.5% polyethylene imine. The filtered reactions were washed 5 times with 200 μL ice cold buffer containing 0.25% BSA. Bound radioactivity was determined by liquid scintillation counting.
For saturation experiments, non-specific binding was subtracted from total binding to provide specific binding and these values were recalculated in terms of pmol ligand bound per mg protein. Saturation curves were constructed and dissociation constants were calculated using the single site ligand binding model: Beq=(Bmax*X)/(X+Kd), where Beq is the amount of ligand bound at equilibrium, Bmax is the maximum receptor density, Kd is the dissociation constant for the ligand, and X is the free ligand concentration. For competition studies percent inhibition was determined and IC50 values were calculated using a 4 parameter logistic model (% inhibition=(A+((B−A)/(1+((x/C)^D)))) using XLfit, where A and B are the maximal and minimum inhibition respectively, C is the IC50 concentration and D is the (Hill) slope.
Example 39B. Tritiated Compound Binding to Membranes Isolated from Cells that Heterologous Express hNav1.7 and the β1 Subunit
Following the procedure described in Example 39A, and making modifications as required to: centrifuge supernatants at 100000×g instead of 10000×g; re-suspend pellets in a buffer containing 0.01% BSA in addition to 100 mM NaCl, 20 mM Tris HCl, pH 7.4 buffer, and 1% v/v […]; and storing membranes at −80° C. in single use aliquots instead of pooled.
Saturation experiments: Following the procedure described in Example 243A, and making modifications as required to incubate [3H]compound for 3 hours instead of 18 hours. […]

The target in assay [2] is T1, hNav1.7. The assay can be described thus: Electrophysiological assay (EP), voltage clamp on Syncropatch 384PE. Conditions: CHO cells expressing Nav1.7, holding potential −50 mV, 7.5 min compound incubation; read-out: EP_SP hNav1.7 EVO IC50. Format: cell-based. An excerpt:
Example 39C. Electrophysiological Assay (EP) (In Vitro Assay)
Patch voltage clamp electrophysiology allows for the direct measurement and quantification of block of voltage-gated sodium channels (NaV's), and allows the determination of the time- and voltage-dependence of block which has been interpreted as differential binding to the resting, open, and inactivated states of the sodium channel (Hille, B., Journal of General Physiology (1977), 69: 497-515).
The following voltage clamp electrophysiology studies were performed on representative compounds using cells heterologously expressing Nav1.7 or Nav1.5 channels. cDNAs for Nav1.7 (NM_002977) and Nav1.5 (AC137587) were stably expressed in Chinese Hamstr Ovary (CHO) cells and CHL (Chinese Hamster Lung) cells respectively. Sodium currents were measured in the whole-cell configuration using Syncropatch 384PE (Nanlon Technologies, Germany). 1NPC®-384 chips with custom medium resistance and single hole mode are used. Internal solution consists of (in mM): 110 […], 10 CsCl, 20 EGTA, and 10 Hepes (pH adjusted to 7.2); and external solution contains (in mM): 60 NMDG, 80 NaCl, 4 KCl, 1 MgCl2, 2 CaCl2, 2 D-Glucose monohydrate, 10 Hepes (pH adjusted to 7.4 with NaOH).
After system flushing, testing compounds are dissolved in external solution containing 0.1% Pluronic F-127. The chip is moved into the measuring head and the instrument primes the chip with external and internal solutions. 10 l cells are added to the chip from a cell hotel, and a negative pressure of −50 mBar is applied to form a seal. Following treatment with seal enhancer solution and wash-off with external solution, negative pressure of −250 mbar is applied for 1 second to achieve the whole-cell configuration, followed by three washing steps in external solution. 20 µl of compounds is added to 40 µl in each well (1:3 dilution of compounds), and after mixing, 20 l is removed so the volume is retained at 40 ul. After approximately 13 minutes recordings, 20 µl/well of 2 uM TTX, or 333 uM Tetracaine (for Nav1.5) is added to achieve full block.
For voltage protocol, an holding potential of −50 mV is applied during the whole experiment. A depolarizing step is applied to −10 mV for 10 ms, followed by a hyperpolarization step to −150 mV for 20 ms to allow channel recovery from inactivation. A second depolarizing step is applied from −150 mV to −10 mV for 10 ms, where currents were measured to derive blocking effects of compounds. Inhibition is determined based on 7.5 min of compound incubation.

A word on the IC50: it is the concentration at which inhibition is half-maximal. In the case of `COc1cc(-c2cc(F)cc(C(F)(F)F)c2)c(F)cc1N1C(=O)CO[C@@H]2CN(S(=O)(=O)Nc3ccon3)CC[C@H]21` [Example 5, (4aR,8aR)-1-(2,3′-difluoro-5-methoxy-5′-(trifluoromethyl)-[1,1′-biphenyl]-4-yl)-N-(isoxazol-3-yl)-2-oxohexahydro-1H-pyrido[3,4-b][1,4]oxazine-6(7H)-sulfonamide], the concentration for half-maximal inhibition (IC50) in assay [1] is 79 nM; in assay [2] it was 2.79 nM.
Taken in the same sequence, the figures for `COc1cc(-c2cccc(Cl)c2)c(F)cc1N1C(=O)CO[C@H]2CN(S(=O)(=O)Nc3ccon3)CC[C@@H]21` [Example 14, (4aS,8aS)-1-(3′-chloro-2-fluoro-5-methoxy-[1,1′-biphenyl]-4-yl)-N-(isoxazol-3-yl)-2-oxohexahydro-1H-pyrido[3,4-b][1,4]oxazine-6(7H)-sulfonamide] were 332 nM and 7.21 nM.
Taken in the same sequence, the figures for `COc1cc(-c2cccc(C(F)(F)F)c2)c(F)cc1N1C(=O)CO[C@H]2CN(S(=O)(=O)Nc3ccon3)CC[C@@H]21` [Example 4, (4aS,8aS)-1-(2-fluoro-5-methoxy-3′-(trifluoromethyl)-[1,1′-biphenyl]-4-yl)-N-(isoxazol-3-yl)-2-oxohexahydro-1H-pyrido[3,4-b][1,4]oxazine-6(7H)-sulfonamide] were 60 nM and 3.52 nM.
Taken in the same sequence, the figures for `COc1cc(-c2cccc(C(F)F)c2)c(F)cc1N1C(=O)CO[C@H]2CN(S(=O)(=O)Nc3ccon3)CC[C@@H]21` [Example 16, (4aS,8aS)-1-(3′-(difluoromethyl)-2-fluoro-5-methoxy-[1,1′-biphenyl]-4-yl)-N-(isoxazol-3-yl)-2-oxohexahydro-1H-pyrido[3,4-b][1,4]oxazine-6(7H)-sulfonamide] were 1390 nM and 49.5 nM.
As to `COc1cc(-c2cccc(C(F)(F)F)c2F)c(F)cc1N1C(=O)CO[C@H]2CN(S(=O)(=O)Nc3ccon3)CC[C@@H]21` [Example 12, (4aS,8aS)-1-(2,2′-difluoro-5-methoxy-3′-(trifluoromethyl)-[1,1′-biphenyl]-4-yl)-N-(isoxazol-3-yl)-2-oxohexahydro-1H-pyrido[3,4-b][1,4]oxazine-6(7H)-sulfonamide], the IC50 in assay [1] came to 131 nM; in assay [2], 6.83 nM.
Taken in the same sequence, the figures for `COc1cc(-c2cccc(C(F)(F)F)c2)cc(F)c1N1C(=O)CO[C@H]2CN(S(=O)(=O)Nc3ccon3)CC[C@@H]21` [Example 20, (4aS,8aS)-1-(3-fluoro-5-methoxy-3′-(trifluoromethyl)-[1,1′-biphenyl]-4-yl)-N-(isoxazol-3-yl)-2-oxohexahydro-1H-pyrido[3,4-b][1,4]oxazine-6(7H)-sulfonamidede] were 2000 nM and 39.8 nM.
With `COc1cc(-c2cccc(C(F)(F)F)c2)c(F)cc1N1C(=O)OC[C@H]2CN(S(=O)(=O)Nc3ccon3)CC[C@@H]21` [Example 34, (4aS,8aS)-1-(2-fluoro-5-methoxy-3′-(trifluoromethyl)-[1,1′-biphenyl]-4-yl)-N-(isoxazol-3-yl)-2-oxohexahydro-2H-pyrido[4,3-d][1,3]oxazine-6(4H)-sulfonamide], the values for the IC50 in assay [1] and in assay [2] were 2000 nM and 196 nM, respectively.
Taken in the same sequence, the figures for `COc1cc(-c2cccc(C(F)(F)F)c2)c(F)cc1N1CCO[C@H]2CN(S(=O)(=O)Nc3ccncn3)CC[C@@H]21` [Example 28, (4aS,8aS)-1-(2-fluoro-5-methoxy-3′-(trifluoromethyl)-[1,1′-biphenyl]-4-yl)-N-(pyrimidin-4-yl)hexahydro-1H-pyrido[3,4-b][1,4]oxazine-6(7H)-sulfonamide] were 26.3 nM and 2.1 nM.
The matching figures for `COc1cc(-c2cc(C(F)(F)F)ccc2F)c(F)cc1N1C(=O)CO[C@H]2CN(S(=O)(=O)Nc3ccon3)CC[C@@H]21` [Example 8, (4aS,8aS)-1-(2,2′-difluoro-5-methoxy-5′-(trifluoromethyl)-[1,1′-biphenyl]-4-yl)-N-(isoxazol-3-yl)-2-oxohexahydro-1H-pyrido[3,4-b][1,4]oxazine-6(7H)-sulfonamide]: 82.8 nM and 4.92 nM.
The matching figures for `COc1cc(-c2cc(F)cc(C(F)(F)F)c2)c(F)cc1N1C(=O)CO[C@H]2CN(S(=O)(=O)Nc3ccon3)CC[C@@H]21` [Example 6, (4aS,8aS)-1-(2,3′-difluoro-5-methoxy-5′-(trifluoromethyl)-[1,1′-biphenyl]-4-yl)-N-(isoxazol-3-yl)-2-oxohexahydro-1H-pyrido[3,4-b][1,4]oxazine-6(7H)-sulfonamide]: 52.9 nM and 1.84 nM.
Take `COc1cc(-c2cccc(C(F)(F)F)c2F)c(F)cc1N1C(=O)CO[C@@H]2CN(S(=O)(=O)Nc3ccon3)CC[C@H]21` [Example 11, (4aR,8aR)-1-(2,2′-difluoro-5-methoxy-3′-(trifluoromethyl)-[1,1′-biphenyl]-4-yl)-N-(isoxazol-3-yl)-2-oxohexahydro-1H-pyrido[3,4-b][1,4]oxazine-6(7H)-sulfonamide]: the values for the IC50 in assay [1] and in assay [2] were 230 nM and 11.2 nM, respectively.
The matching figures for `COc1cc(-c2cccc(C(F)(F)F)c2)c(F)cc1N1C(=O)CC[C@H]2CN(S(=O)(=O)Nc3ccon3)CCC21` (stereo in doubt) [Example 37, (4aS,8aR)-1-(2-fluoro-5-methoxy-3′-(trifluoromethyl)-[1,1′-biphenyl]-4-yl)-N-(isoxazol-3-yl)-2-oxooctahydro-1,6-naphthyridine-6(2H)-sulfonamide]: 761 nM and 12.9 nM.
